# In patent US20090036441A1, “Indole Derivatives With Antitumor Activity” (Cell Therapeutics Europe S.R.L., priority 2004, published 2009):
# pIC50: −log10 of the molar value.
# What was measured:
# [1] = target: T1, Biot-Hif-1α^786-826/GST-p300^323/423 (Homo sapiens, UniProt Q09472); experiment: Primary biochemical assay (DELFIA fluorescence) for inhibition of the Hif-1α/p300 interaction; type: binding; conditions: 10 concentrations from 90 μM to 0.178 μM, 1 h at 25° C.
# T1 construct: the p300 region ranging from amino acids 323 to 423; fragment corresponding to C-terminal 786-826 amino acids; host or cells: E. coli BL21 (DE3), vector pGEX-4T-1
# Protocol: Primary Biochemical Assay for the Inhibition of Biot-Hif-1α^786-826/GST-p300^323/423
# The compounds were evaluated for their ability to inhibit the interaction between Hif-1α and p300 using a fluorescence assay (DELFIA™). The procedure described by Freedman S J at al., Nature Structural Biology 2003, 10 (7), 504-512 was suitably modified.
# The human biotinylated Hif-1α fragment corresponding to C-terminal 786-826 amino acids (Biotinylated Hif-1α^786-826) was obtained from AnaSpec Inc (San Jose, Calif., USA) and used without further purifications.
# A construct expressing the GST-p300^323-423 fragment was transformed in the BL21 (DE3) strain of E. coli. Said construct was obtained by cloning in the expression vector pGEX-4T-1 (Amersham No. 27-45-80-01) the DNA sequence which encodes for the p300 region ranging from amino acids 323 to 423; the DNA sequence was obtained by PCR (Polymerase Chain Reaction). The protein region was induced with 1 mM isopropyl-1-tio-β-D-galactopyranoside (IPTG). The bacteria were lysed by sonication in the presence of a suitable buffer (50 mM Tris*HCl pH 8.00, 100 mM NaCl, 0.1 mM ZnSO4, 1 mM DTT, 0.1 mg/ml lysozyme and a tablet of Complete EDTA-free Protease Inhibitor Cocktail Tablets (Roche, catalogue number 1 873 580)) and the GST fusion protein present in the soluble fraction was purified on a Glutathione-Sepharose 4B resin (Amersham Biosciences; no. 27-4574-01). The protein final concentration was determined according to Bradford with the Biorad assay (Bradford M., Anal. Biochem., 72, 248, (1976)). The purity of the sample was evaluated by SDS-PAGE. Samples were stored at −80° C. in 50% glycerol.
# The assay was carried out using NUNC Maxisorp 96 wells plates as follows.
# C96 NUNC Maxisorp plates (from Nunc, product No. 446612) were incubated overnight with streptavidin (Sigma; product No. S 4762) to a final concentration of 1 μg/ml in PBS buffer (Phosphate Buffered Saline 10 mM sodium phosphate, 150 mM sodium chloride pH 7.4). Each well was subsequently washed with 3×300 μl of TBST buffer (50 mM Tris*HCl pH 8.0, 150 mM NaCl, 0.05% (v/v) Tween 20). Each well was then added with 100 μl of a 10 nM solution of biotinylated Hif-1α^786-826 in TBSB (50 mM Tris-HCl pH 8.0, 150 mM NaCl, 5% (w/v) BSA (Sigma, product No. A 2153)) and incubated for 1 h at 25° C. In the last row of each plate, only the TBSB buffer was added. Each well was subsequently washed three times with 300 μl of TBST buffer. The thus prepared plate represented the assay plate.
# Separately, the plate (daughter plate) containing in each well 10 μl of each test compound dissolved in DMSO to a concentration of 10 μM was prepared. This plate was added with 100 μl of a 111 pM solution of GST-p300^323-423 diluted in the incubation buffer (TBSB added with 0.1% (v/v) Tween 20, 0.5 mM DTT, 10 μM ZnCl2) and the whole was mixed. 100 μl of the mixture contained in the daughter plate were immediately transferred to the assay plate.
# Each daughter plate was prepared with 80 different compounds at a 10 μM concentration, safe for the two last well rows, wherein each well was added with 10 μl of DMSO. These two rows represented the positive (row 11, +Hif-1) and negative (row 12, −Hif-1) controls.
# After incubation for 1 h at 25° C., each well was washed with 3×300 μl of TBST buffer (50 mM Tris-HCl pH 8.0. 150 mM NaCl, 0.05% (v/v) Tween 20). Each well was then added with 60.8 ng of an europium-labelled anti-GST antibody (DELFIA Eu-N1 labeled; Perkin Elmer; product no. A D 0251) dissolved in 100 μl of TBST buffer containing 10 μM ZnCl2. After incubation for 1 h at room temperature, each well was washed with 3×300 μl of TBST buffer, then 100 μl of signal amplification solution (Enhancement Solution, Perkin Elmer product No. 1244-105) were added.
# The plates were then read using a FUSION alpha-FP-HT reader (Perkin Elmer) in fluorescence mode for time resolution.
# The activity of the compounds was calculated as follows. […]
# [2] = test system: VEGF promoter (rat VEGF gene promoter, Hep3B-VEGFLuciferase cells); experiment: Luciferase assay in Hep3B-VEGFLuciferase cells, deferoxamine-induced hypoxia; type: cell-based; conditions: Homo sapiens, deferoxamine about 100 μM, 18-20 hours, 50% inhibition of the luciferase signal
# Protocol: (§1) The compounds having inhibitory activity in the Hif-1α/p300 assay described above were evaluated using a cellular test on genetically modified human hepatocarcinoma Hep3B cells (Hep3B-VEGFLuciferase) in order to stably express a vector in which the Open Reading Frame of firefly Luciferase was under the control of the rat VEGF gene promoter.
# Hif-1 Induction using deferoxamine (which induces hypoxia) induces luciferase transcription through activation of the VEGF promoter, which in turn causes an increase in luciferase activity, which can be measured with a commercially available kit. The compounds interfering with the Hif-1α/p300 complex inhibit Hif-dependent luciferase activation, resulting in a reduction of luciferase activity. This assay therefore allows to evaluate the activity of the compounds towards the VEGF promoter, which is essential to VEGF production and the subsequent tumor angiogenesis.
# (§2) The Hep-3B-VEGFLuciferase cell line was obtained according to the following procedure.
# (§3) Human hepatocarcinoma cells Hep-3B (ATCC reference No. HB-8064) were seeded onto 6 wells plates at a concentration of 2.5×10^5 cells/well in 2 ml DMEM/10% FCS and the following day were transfected using Fugene 6 (Roche Biochemicals®). In each well, the transfection mixtures contained 6 μl of the transfection reagent Fugene 6, 1 μg of the pxp2-VEGF-luciferase reporter plasmid (VEGF rat promoter, NCBI GenBank No. of accession U22373, Levy et al., J. Biol. Chem. 270 (22), 13333-13340. 1995), and 10 ng of pcDNA3.1(+)plasmid (INVITROGEN) which makes cells resistant to neomycin. Transfection was carried out according to the manufacturer's instructions.
# (§4) A suitable cell population (phenotypically resistant to neomycin) was selected by means of a cloning approach based on the “dilution limit” procedure (Sambrook J., Fritsch E. F. and Maniatis T. (1989) Molecular Cloning, A Laboratory Manual; Cold Spring Harbor Laboratories). The subsequent assays for Luciferase expression/activity “Luciferase assay” and for the quantification of secreted VEGF in the supernatant “ELISA secreted VEGF test”) were carried out with the stably transfected selected cells.
# (§5) The following experimental protocol was used:
# (§6) Day 1. Hep-3B-VEGF Luciferase cells were seeded onto 96-wells “blank” plates (a product by Greiner) at a density of 1×10^4 cells/well/125 μl of medium, then left to adhere overnight in thermostat (37° C./5% CO2).
# (§7) Day 2. 75 μl of “3.2× working solutions” of compound (previously prepared in culture medium so that the DMSO concentration is 1.6% v/v) were added to the cells (partial volume/well=200 μl, partial concentration of compound=1.2×, partial concentration of DMSO=0.6%). After 1 hour incubation in thermostat, hypoxia was induced chemically by addition of 40 μl/well of a 6× (600 μM) stock solution of deferoxamine (final volume/well=240 μl, final concentration of compound=1×, final concentration of DMSO=0.5%, final concentration of deferoxamine=1×≈100 μM). The plates were then thermostated for further 18-20 hours.
# (§8) Day 3. The “Luciferase assay” and the “secreted VEGF ELISA test” were carried out as follows.
# Quantification of the expression of the Luciferase reporter gene was performed by means of the Bright Glo Reagent (Promega). After removing the supernatant and washing once with PBS, 40 μl/well of Bright Glo Reagent were added to blank 96-well plates with Hep3B/VEGF-Luciferase cells. The expression levels of the reporter gene were determined by reading the plates with a luminometer.
# (§9) IC50 values (concentration of the compound that causes 50% inhibition of the luciferase signal or 50% reduction of secreted VEGF) for some compounds of the invention are reported in table 2: […]
# [3] = test system: secreted VEGF (Hep3B-VEGFLuciferase cells); experiment: Secreted VEGF ELISA test in Hep3B-VEGFLuciferase cells, deferoxamine-induced hypoxia; type: cell-based; conditions: Homo sapiens, supernatant, deferoxamine about 100 μM, 18-20 hours, 50% reduction of secreted VEGF
# Protocol: as §1, §2, §3, §4, §5, §6, §7, §8
# “Secreted VEGF ELISA Test”
# Quantification of secreted VEGF was performed using the kit “DuoSet Elisa Development System human VEGF” kit (R&D Systems). 100 μl/well of the supernatant from the “blank” 96 well-plates with the cells of the Hep3B/VEGF Luciferase clone were transferred into transparent 96-well plates of (Maxisorp) and assayed according to the indications of the kit manufacturer.
# as §9
# T1 sequence (Q09472 323-423): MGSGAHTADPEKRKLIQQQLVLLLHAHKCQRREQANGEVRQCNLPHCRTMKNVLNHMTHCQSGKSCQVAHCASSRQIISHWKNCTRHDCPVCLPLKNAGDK
pIC50 [1],pIC50 [2],pIC50 [3],SMILES
5.14,5.97,4.84,"CCOC(=O)c1c2c(n(Cc3ccccc3)c1C)C(=O)C(=O)c1ccc(Br)cc1-2 [12(c), Ethyl 8-bromo-2-methyl-3-benzyl-4,5-dioxo-4,5-dihydro-3H-benzo[e]indole-1-carboxylate]"
5.82,6.59,5.92,"CCOC(=O)c1c2c(n(C)c1CN(C)C)C(=O)C(=O)c1ccc(Br)cc1-2 [Example 5, Ethyl 8-bromo-2-dimethylaminomethyl-3-methyl-4,5-dioxo-4,5-dihydro-3H-benzo[e]indole-1-carboxylate]"
5.48,6.33,4.97,"CCOC(=O)c1c2c(n(C)c1C)C(=O)C(=O)c1ccc(Br)cc1-2 [Example 3, Ethyl 8-bromo-2,3-dimethyl-4,5-dioxo-4,5-dihydro-3H-benzo[e]indole-1-carboxylate]"
4.88,6.35,5.24,"CCOC(=O)c1c(C)[nH]c2c1-c1cc(Br)ccc1C(=O)C2=O [Example 1, Ethyl 8-bromo-2-methyl-4,5-dioxo-4,5-dihydro-3H-benzo[e]indole-1-carboxylate]"
5.04,6.52,6.52,"CCOC(=O)c1c2c(n(C)c1CNC(C)C)C(=O)C(=O)c1ccc(Br)cc1-2 [Example 6, Ethyl 8-bromo-2-isopropylaminomethyl-3-methyl-4,5-dioxo-4,5-dihydro-3H-benzo[e]indole-1-carboxylate]"
4.96,5.96,5.32,"CCOC(=O)c1c2c(n(C)c1CN1CCOCC1)C(=O)C(=O)c1ccc(Br)cc1-2 [Example 4, Ethyl 8-bromo-3-methyl-2-(morpholin-4′-yl)methyl-4,5-dioxo-4,5-dihydro-3H-benzo[e]indole-1-carboxylate]"
4.85,6.49,5.69,"CCOC(=O)c1c2c(n(C)c1CO)C(=O)C(=O)c1ccc(Br)cc1-2 [12(a), Ethyl 8-bromo-2-hydroxymethyl-3-methyl-4,5-dioxo-4,5-dihydro-3H-benzo[e]indole-1-carboxylate]"
4.48,< 4.90,< 4.90,"CCOC(=O)c1c2c(n(CC(=O)O)c1C)C(=O)C(=O)c1ccc(Br)cc1-2 [Example 8, Ethyl 8-bromo-3-carboxymethyl-2-methyl-4,5-dioxo-4,5-dihydro-3H-benzo[e]indole-1-carboxylate]"
4.88,6.49,5.69,"CCOC(=O)c1c2c(n(C)c1CN(CC)CC)C(=O)C(=O)c1ccc(Br)cc1-2 [12(b), Ethyl 8-bromo-2-diethylaminomethyl-3-methyl-4,5-dioxo-4,5-dihydro-3H-benzo[e]indole-1-carboxylate]"
5.02,6.22,< 4.90,"CCOC(=O)c1c2c(n(CC(N)=O)c1C)C(=O)C(=O)c1ccc(Br)cc1-2 [Example 9, Ethyl 8-bromo-3-carbamoylmethyl-2-methyl-4,5-dioxo-4,5-dihydro-3H-benzo[e]indole-1-carboxylate]"

SMILES,pIC50 [1],pIC50 [2],pIC50 [3]
"CCOC(=O)c1c2c(n(CC(=O)OC(C)(C)C)c1C)C(=O)C(=O)c1ccc(Br)cc1-2 [Example 7, Ethyl 8-bromo-3-tert-butoxycarbonylmethyl-2-methyl-4,5-dioxo-4,5-dihydro-3H-benzo[e]indole-1-carboxylate]",4.83,5.80,5.03
